The text below walks through data of patent US9556165B2 (priority 2012, dated 2017).

Common to all, as to type: cell-based
One assay relates to B. fragilis 6688. Kind of assay: MIC determination, broth microdilution (CLSI). The conditions noted are these: Bacteroides fragilis, 6688, strain 15; broth microdilution; read-out: MIC strain 15 (B. fragilis 6688). In general terms: Broth dilution looks for growth in wells or tubes with falling amounts of substance.
In a further assay the test system is E. coli ATCC25922. Briefly: MIC determination, broth microdilution (CLSI). Conditions: Escherichia coli, ATCC25922, strain 1.
In a further assay the test system is K. pneumoniae 60. Kind of assay: MIC determination, broth microdilution (CLSI). Conditions: Klebsiella pneumoniae, 60, strain 2.
For another assay, the system named is C. freundii K21/3034. Briefly: MIC determination, broth microdilution (CLSI). Conditions: Citrobacter freundii, K21/3034, strain 4.
The next assay deals with H. influenzae ATCC 49247. Briefly: MIC determination, broth microdilution (CLSI). Conditions: Haemophilus influenzae, ATCC49247, strain 12; broth microdilution; read-out: MIC strain 12 (H. influenzae ATCC 49247).
Assay [1] concerns P. aeruginosa 2297 (AmpC wt). Kind of assay: MIC determination, broth microdilution (CLSI). Conditions: Pseudomonas aeruginosa, strain 7.
The next assay deals with C. perfringens DSM756. Briefly: microbe, parasite or virus in culture. The conditions noted are these: Clostridium perfringens, DSM756, read-out: MIC strain 16 (C. perfringens DSM756), strain 16; broth microdilution.
The next assay relates to E. cloacae 34654. Kind of assay: MIC determination, broth microdilution (CLSI). Conditions: Enterobacter cloacae, 34654, strain 3.
The next assay relates to S. aureus 133. Briefly: MIC determination, broth microdilution (CLSI).
The next assay relates to A. baumannii ATCC15308. Briefly: MIC determination, broth microdilution (CLSI). Conditions: Acinetobacter baumannii, ATCC15308, strain 9.
In a further assay the test system is S. pneumoniae 113. Briefly: MIC determination, broth microdilution (CLSI). The conditions noted are these: Streptococcus pneumoniae, 113, strain 13; broth microdilution; read-out: MIC strain 13 (S. pneumoniae 113).
A further assay deals with M. morganii 126/3048. Briefly: MIC determination, broth microdilution (CLSI). Conditions: Morganella morganii, 126/3048, strain 5.
The test system of the next assay is Bacteria. Kind of assay: MIC determination in combination with β-lactamase inhibitors (constant 4 μg/mL).
The next assay concerns E. coli J62. Briefly: MIC determination, broth microdilution (CLSI). Conditions: Escherichia coli, J62, strain 17; broth microdilution; read-out: MIC strain 17 (E. coli J62).
The next assay relates to E. coli J62-TEM-3. Kind of assay: MIC determination, broth microdilution (CLSI). Conditions: Escherichia coli, J62TEM3, read-out: MIC strain 18 (E. coli J62-TEM-3), strain 18; broth microdilution.
For another assay, the system named is P. aeruginosa PAO1. Briefly: MIC determination, broth microdilution (CLSI). Conditions: Pseudomonas aeruginosa, PAO1, strain 6.
Assay [2] has as its system P. aeruginosa 2297-con (AmpC derepressed). Briefly: MIC determination, broth microdilution (CLSI). Conditions: Pseudomonas aeruginosa, read-out: strain 8 MIC, strain 8.
Where [3] appears, read: Staphylococcus aureus, 133, strain 11, read-out: strain 11 MIC.
Where [4] appears, read: Staphylococcus aureus, 133, strain 14, broth microdilution, read-out: MIC strain 14 (S. aureus 133).

Each structure is given as a SMILES string. Converted amounts (≈) assume the structure as drawn. Where two headings read alike, the source gives them in different places.

For the compound `N=C(N)c1ccc(OCCO/N=C(\C(=O)N[C@@H]2C(=O)N(S(=O)(=O)O)[C@@H]2C(N)=O)c2csc(N)n2)cc1` [Example 66, (2S,3S)-3-{[(2Z)-2-(2-Amino-1,3-thiazol-4-yl)-2-{[2-(4-carbamimidoylphenoxy)-ethoxy]imino}acetyl]amino}-2-carbamoyl-4-oxoazetidine-1-sulfonic acid], the MIC with B. fragilis 6688 was found to be 16 µg/mL (≈ 29.6 µM); against E. coli ATCC25922, 2 µg/mL (≈ 3.7 µM); against K. pneumoniae 60, 1 µg/mL (≈ 1.85 µM); against C. freundii K21/3034, 2 µg/mL (≈ 3.7 µM); in the assay with H. influenzae ATCC 49247, 2 µg/mL (≈ 3.7 µM); in assay [1], 32 µg/mL (≈ 59.2 µM). The MIC with C. perfringens DSM756 turned out to be 16 µg/mL (≈ 29.6 µM); in the assay with E. cloacae 34654 it was 4 µg/mL (≈ 7.4 µM); in the assay with S. aureus 133 (setting [3]) it was 1 µg/mL (≈ 1.85 µM); in the assay with A. baumannii ATCC15308, 4 µg/mL (≈ 7.4 µM); in the assay on S. pneumoniae 113, 1 µg/mL (≈ 1.85 µM); against M. morganii 126/3048, 2 µg/mL (≈ 3.7 µM). The figures for the MIC in the assay on E. coli J62, in the assay on E. coli J62-TEM-3 and against P. aeruginosa PAO1 were 2 µg/mL (≈ 3.7 µM), 4 µg/mL (≈ 7.4 µM) and 32 µg/mL (≈ 59.2 µM), respectively. In addition, in the assay on Bacteria, the “MIC strain 19 (E. coli J62-TEM-3 + 4 μg/mL clavulanic acid)” value came to 2 µg/mL. Besides, the “MIC strain 20 (E. coli J62-TEM-3 + 4 μg/mL sulbactam)” value with Bacteria stood at 2 µg/mL. Moreover, the “MIC strain 21 (E. coli J62-TEM-3 + 4 μg/mL tazobactam)” value in the assay with Bacteria worked out at 2 µg/mL.
Regarding `CC1(C)[C@H](NC(=O)/C(=N\O[C@H](COc2ccc(C(=N)NC(CN)CN)cc2)C(=O)O)c2csc(N)n2)C(=O)N1OS(=O)(=O)O` [Example 103, (2R)-2-({[(1Z)-1-(2-Amino-1,3-thiazol-4-yl)-2-{[(3S)-2,2-dimethyl-4-oxo-1-(sulfooxy)-azetidin-3-yl]amino}-2-oxoethylidene]amino}oxy)-3-{4-[N-(1,3-diaminopropan-2-yl)carbamimidoyl]phenoxy}propanoic acid], the MIC against E. coli ATCC25922 is 2 µg/mL (≈ 3.04 µM); with H. influenzae ATCC 49247, 0.25 µg/mL (≈ 0.38 µM); with C. perfringens DSM756 it was 32 µg/mL (≈ 48.7 µM); in the assay on S. aureus 133 (setting [3]) it was at most 0.063 µg/mL; in the assay with A. baumannii ATCC15308, 32 µg/mL (≈ 48.7 µM); in the assay on S. pneumoniae 113, 4 µg/mL (≈ 6.08 µM). Moreover, the MIC against M. morganii 126/3048 was 2 µg/mL (≈ 3.04 µM); against P. aeruginosa PAO1 it was 16 µg/mL (≈ 24.3 µM).
On to `C[C@H]1[C@H](NC(=O)/C(=N\OCCOc2ccc(C(=N)N)cc2)c2csc(N)n2)C(=O)N1OS(=O)(=O)O` [Example 47, (2Z)-2-(2-Amino-1,3-thiazol-4-yl)-2-{[2-(4-carbamimidoylphenoxy)ethoxy]imino}-N-[(2S,3S)-2-methyl-4-oxo-1-(sulfooxy)azetidin-3-yl]ethanamide], for which the MIC in the assay with B. fragilis 6688 was found to be 16 µg/mL (≈ 30.3 µM); with E. coli ATCC25922, 0.25 µg/mL (≈ 0.474 µM); in the assay on K. pneumoniae 60, 0.5 µg/mL (≈ 0.948 µM); with C. freundii K21/3034, 0.5 µg/mL (≈ 0.948 µM); in the assay on H. influenzae ATCC 49247, 0.125 µg/mL (≈ 0.237 µM); in [1], 2 µg/mL (≈ 3.79 µM). Also, the MIC in the assay on C. perfringens DSM756 is 1 µg/mL (≈ 1.9 µM); against E. cloacae 34654 it was 1 µg/mL (≈ 1.9 µM); in the assay on S. aureus 133 (setting [3]) it was at most 0.063 µg/mL; in the assay with S. aureus 133 (setting [4]), 1 µg/mL (≈ 1.9 µM); against A. baumannii ATCC15308 it was 2 µg/mL (≈ 3.79 µM); in the assay on S. pneumoniae 113 it was 0.125 µg/mL (≈ 0.237 µM). Besides, the MIC in the assay with M. morganii 126/3048 is 2 µg/mL (≈ 3.79 µM); in the assay on E. coli J62, 0.5 µg/mL (≈ 0.948 µM); with E. coli J62-TEM-3, 32 µg/mL (≈ 60.7 µM); against P. aeruginosa PAO1, 4 µg/mL (≈ 7.58 µM). The “MIC strain 19 (E. coli J62-TEM-3 + 4 μg/mL clavulanic acid)” value in the assay with Bacteria was found to be 0.5 µg/mL. The “MIC strain 20 (E. coli J62-TEM-3 + 4 μg/mL sulbactam)” value with Bacteria is 0.5 µg/mL. Besides, the “MIC strain 21 (E. coli J62-TEM-3 + 4 μg/mL tazobactam)” value in the assay with Bacteria was found to be 0.5 µg/mL.
Regarding `CC1(C)[C@H](NC(=O)/C(=N\OCCOc2ccc(C(=N)NCC[N+]3(C)CCCC3)cc2)c2csc(N)n2)C(=O)N1OS(=O)(=O)O.O=C([O-])C(F)(F)F` [Example 79, 1-(2-{[{4-[2-({[(1Z)-1-(2-Amino-1,3-thiazol-4-yl)-2-{[(3S)-2,2-dimethyl-4-oxo-1-(sulfo-oxy)azetidin-3-yl]amino}-2-oxoethylidene]amino}oxy)ethoxy]phenyl}(imino)-methyl]amino}ethyl)-1-methylpyrrolidinium chloride], the MIC was 4 µg/mL in the assay on B. fragilis 6688; 0.5 µg/mL in the assay on E. coli ATCC25922; 0.5 µg/mL against K. pneumoniae 60; 0.25 µg/mL against C. freundii K21/3034; at most 0.063 µg/mL in the assay on H. influenzae ATCC 49247; 8 µg/mL in assay [1]. The MIC was 2 µg/mL with C. perfringens DSM756; 0.5 µg/mL against E. cloacae 34654; 4 µg/mL in assay [2]; at most 0.063 µg/mL with S. aureus 133 (setting [3]); 2 µg/mL in the assay with S. aureus 133 (setting [4]); 0.5 µg/mL against A. baumannii ATCC15308. Moreover, the MIC in the assay on S. pneumoniae 113 is at most 0.063 µg/mL; in the assay on M. morganii 126/3048 it was 1 µg/mL; with E. coli J62 it was 0.5 µg/mL; with E. coli J62-TEM-3, 8 µg/mL; with P. aeruginosa PAO1, 8 µg/mL. Further, the “MIC strain 19 (E. coli J62-TEM-3 + 4 μg/mL clavulanic acid)” value with Bacteria came out at 0.5 µg/mL. Besides, the “MIC strain 20 (E. coli J62-TEM-3 + 4 μg/mL sulbactam)” value in the assay on Bacteria is 0.5 µg/mL. In addition, in the assay with Bacteria, the “MIC strain 21 (E. coli J62-TEM-3 + 4 μg/mL tazobactam)” value is 0.5 µg/mL.
Consider `CC1(C)[C@H](NC(=O)/C(=N\OCC(Oc2ccc(C(=N)N)cc2)C(=O)O)c2csc(N)n2)C(=O)N1OS(=O)(=O)O` (single isomer, unassigned) [Example 87A], for which the MIC with B. fragilis 6688 stood at 32 µg/mL (≈ 54.6 µM); against E. coli ATCC25922, 1 µg/mL (≈ 1.71 µM); in the assay on K. pneumoniae 60, 1 µg/mL (≈ 1.71 µM); against C. freundii K21/3034, 1 µg/mL (≈ 1.71 µM); with H. influenzae ATCC 49247, 0.25 µg/mL (≈ 0.427 µM); in the assay with C. perfringens DSM756, 8 µg/mL (≈ 13.7 µM). The MIC with E. cloacae 34654 was 1 µg/mL (≈ 1.71 µM); in the assay on S. aureus 133 (setting [3]), at most 0.063 µg/mL; in the assay on A. baumannii ATCC15308, 8 µg/mL (≈ 13.7 µM); with S. pneumoniae 113, 0.5 µg/mL (≈ 0.854 µM); against M. morganii 126/3048, 0.25 µg/mL (≈ 0.427 µM); with E. coli J62, 2 µg/mL (≈ 3.42 µM). In addition, the MIC in the assay with E. coli J62-TEM-3 and in the assay on P. aeruginosa PAO1 was 32 µg/mL (≈ 54.6 µM) throughout. In the assay with Bacteria, the “MIC strain 19 (E. coli J62-TEM-3 + 4 μg/mL clavulanic acid)” value was 1 µg/mL. Moreover, in the assay with Bacteria, the “MIC strain 20 (E. coli J62-TEM-3 + 4 μg/mL sulbactam)” value came out at 1 µg/mL. The “MIC strain 21 (E. coli J62-TEM-3 + 4 μg/mL tazobactam)” value in the assay with Bacteria turned out to be 2 µg/mL.
Turning to `C[C@H]1[C@H](NC(=O)/C(=N\OCCOc2ccc(C(=N)NCCO)cc2)c2csc(N)n2)C(=O)N1S(=O)(=O)O` [Example 69, (2S,3S)-3-({(2Z)-2-(2-Amino-1,3-thiazol-4-yl)-2-[(2-{4-[N-(2-hydroxyethyl)carbamimidoyl]-phenoxy}ethoxy)imino]acetyl}amino)-2-methyl-4-oxoazetidine-1-sulfonic acid], the MIC with B. fragilis 6688 is 1 µg/mL (≈ 1.8 µM); against E. coli ATCC25922 it was 0.125 µg/mL (≈ 0.225 µM); with K. pneumoniae 60 it was 0.25 µg/mL (≈ 0.45 µM); against C. freundii K21/3034, 0.125 µg/mL (≈ 0.225 µM); in the assay with H. influenzae ATCC 49247, at most 0.063 µg/mL; in assay [1], 8 µg/mL (≈ 14.4 µM). For the same compound, the MIC is 1 µg/mL (≈ 1.8 µM) in the assay with C. perfringens DSM756; 0.25 µg/mL (≈ 0.45 µM) in the assay with E. cloacae 34654; at most 0.063 µg/mL in the assay with S. aureus 133 (setting [3]); 4 µg/mL (≈ 7.2 µM) in the assay on S. aureus 133 (setting [4]); 2 µg/mL (≈ 3.6 µM) against A. baumannii ATCC15308; at most 0.063 µg/mL with S. pneumoniae 113. Besides, the MIC in the assay with M. morganii 126/3048 turned out to be 0.125 µg/mL (≈ 0.225 µM); with E. coli J62, 0.25 µg/mL (≈ 0.45 µM); in the assay on E. coli J62-TEM-3 it was 16 µg/mL (≈ 28.8 µM); in the assay with P. aeruginosa PAO1 it was 4 µg/mL (≈ 7.2 µM). In addition, the “MIC strain 19 (E. coli J62-TEM-3 + 4 μg/mL clavulanic acid)” value with Bacteria came to 0.25 µg/mL. Moreover, the “MIC strain 20 (E. coli J62-TEM-3 + 4 μg/mL sulbactam)” value in the assay on Bacteria came to 0.25 µg/mL. Moreover, in the assay on Bacteria, the “MIC strain 21 (E. coli J62-TEM-3 + 4 μg/mL tazobactam)” value came to 0.25 µg/mL.
